Experimental data taken from ChEMBL document CHEMBL3046360, “Design, synthesis and preliminary antiviral screening of new N-phenylpyrazole and dihydroisoxazole derivatives” (Med Chem Res, 2010).
The source made the active and inactive calls. The rule behind the calls is not given here.

Columns and labels:
[1] = system: Hepatovirus A; assay: Antiviral activity against Hepatitis A virus infected Vero cells assessed as reduction in viral plaque at 20 ug/ml after overnight incubation by crystal violet staining; type: functional; design: scale not given: the % may be the effect or the level left
[2] = system: Hepatovirus A; assay: Antiviral activity against Hepatitis A virus infected Vero cells assessed as reduction in viral plaque at 10 ug/ml after overnight incubation by crystal violet staining; type: functional; design: scale not given: the % may be the effect or the level left
[3] = system: Human alphaherpesvirus 1; assay: Antiviral activity against Human herpesvirus 1 infected Vero cells assessed as reduction in viral plaque at 20 ug/ml after overnight incubation by crystal violet staining; type: functional; design: scale not given: the % may be the effect or the level left
[4] = system: Human alphaherpesvirus 1; assay: Antiviral activity against Human herpesvirus 1 infected Vero cells assessed as reduction in viral plaque at 10 ug/ml after overnight incubation by crystal violet staining; type: functional; design: scale not given: the % may be the effect or the level left
[5] = system: Human immunodeficiency virus 2; assay: Antiviral activity against Human immunodeficiency virus type 2 (ISOLATE ROD) infected MT4 cells assessed as inhibition of virus-induced cytopathic effect up to 20 ug/ml after 5 days by MTT assay; type: functional, organism-based
[6] = system: Human immunodeficiency virus 1; assay: Antiviral activity against Human immunodeficiency virus 1 IIIB infected MT4 cells assessed as inhibition of virus-induced cytopathic effect up to 20 ug/ml after 5 days by MTT assay; type: functional, organism-based
[7] = Selectivity ratio of MCC for human HEL cells to EC50 for acyclovir-resistant TK-deficient Hepres simplex virus 1 KOS; type: ADME, cell-based
[8] = Selectivity ratio of MCC for human HEL cells to EC50 for Vesicular stomatitis virus; type: ADME, cell-based
[9] = Selectivity ratio of MCC for human HEL cells to EC50 for Vaccinia virus; type: ADME, cell-based
[10] = Selectivity ratio of MCC for human HEL cells to EC50 for Herpes simplex virus 2 G; type: ADME, cell-based
[11] = Selectivity ratio of MCC for human HEL cells to EC50 for Herpes simplex virus 1 KOS; type: ADME, cell-based
[12] = Cytotoxicity against Chlorocebus aethiops (African green monkey) Vero cells after 3 days by microscopic analysis; type: cell-based; conditions: chlorocebus sabaeus
[13] = system: Punta Toro virus; assay: Antiviral activity against Punta Toro virus infected Vero cells assessed as inhibition of virus-induced cytopathic effect after 3 days by MTT assay; type: functional, organism-based; conditions: 72 h
[14] = system: Coxsackievirus B4; assay: Antiviral activity against Human coxsackievirus B4 infected Vero cells assessed as inhibition of virus-induced cytopathic effect after 3 days by MTT assay; type: functional, organism-based; conditions: Enterovirus B, 72 h
[15] = system: Sindbis virus; assay: Antiviral activity against Sindbis virus infected Vero cells assessed as inhibition of virus-induced cytopathic effect after 3 days by MTT assay; type: functional, organism-based; conditions: 72 h
[16] = system: Reovirus sp.; assay: Antiviral activity against Mammalian orthoreovirus 1 virus infected Vero cells assessed as inhibition of virus-induced cytopathic effect after 3 days by MTT assay; type: functional, organism-based; conditions: 72 h
[17] = system: Human respirovirus 3; assay: Antiviral activity against Human parainfluenza virus 3 infected Vero cells assessed as inhibition of virus-induced cytopathic effect after 3 days by MTT assay; type: functional, organism-based; conditions: Human respirovirus 3, Vero, 72 h
[18] = system: Respiratory syncytial virus; assay: Antiviral activity against Respiratory syncytial virus infected HeLa cells assessed as inhibition of virus-induced cytopathic effect after 3 days by MTT assay; type: functional, organism-based; conditions: human respiratory syncytial virus, 72 h
[19] = system: Coxsackievirus B4; assay: Antiviral activity against Human coxsackievirus B4 infected HeLa cells assessed as inhibition of virus-induced cytopathic effect after 3 days by MTT assay; type: functional, organism-based; conditions: Enterovirus B, 72 h
[20] = system: Vesicular stomatitis virus; assay: Antiviral activity against Vesicular stomatitis virus infected HeLa cells assessed as inhibition of virus-induced cytopathic effect after 3 days by MTT assay; type: functional, organism-based; conditions: 72 h
[21] = Cytotoxicity against Homo sapiens (human) HeLa cells after 3 days by microscopic analysis; type: cell-based
[22] = system: Human alphaherpesvirus 1; assay: Antiviral activity against acyclovir-resistant TK-deficient Hepres simplex virus 1 KOS infected in HEL cells assessed as inhibition of virus-induced cytopathic effect after 3 days by MTT assay; type: functional, organism-based; conditions: Human alphaherpesvirus 1, KOS, 72 h
[23] = system: Vesicular stomatitis virus; assay: Antiviral activity against Vesicular stomatitis virus infected HEL cells assessed as inhibition of virus-induced cytopathic effect after 3 days by MTT assay; type: functional, organism-based; conditions: 72 h
[24] = system: Vaccinia virus; assay: Antiviral activity against Vaccinia virus infected in HEL cells assessed as inhibition of virus-induced cytopathic effect after 3 days by MTT assay; type: functional, organism-based; conditions: Orthopoxvirus vaccinia, 72 h
[25] = system: Human alphaherpesvirus 2; assay: Antiviral activity against Human herpesvirus 2 strain G infected HEL cells assessed as inhibition of virus-induced cytopathic effect after 3 days by MTT assay; type: functional, organism-based; conditions: Human alphaherpesvirus 2, strain G, 72 h
[26] = system: Human alphaherpesvirus 1; assay: Antiviral activity against Human herpesvirus 1 strain KOS infected in HEL cells assessed as inhibition of virus-induced cytopathic effect after 3 days by MTT assay; type: functional, organism-based; conditions: Human alphaherpesvirus 1, KOS, 72 h
[27] = Cytotoxicity against Homo sapiens (human) HEL cells after 3 days by microscopic analysis; type: cell-based

Structure (SMILES)	Activity [1] [%]	Activity [2] [%]	Activity [3] [%]	Activity [4] [%]	Activity [5]	Activity [6]	MCC at 72 h [12]	EC50 [13]	EC50 [14]	EC50 [15]	EC50 [16]	EC50 [17]	EC50 [18]	EC50 [19]	MCC at 72 h [21]	EC50 [22]	EC50 [23]	EC50 [25]	EC50 [26]	MCC at 72 h [27]	other results
Clc1ccc(C2=NN(c3ccccc3)C(c3ccc(OCc4ccccc4)cc3)C2)cc1 (stereo not given)	21	0	43	19	inactive	inactive	100 µg/mL	> 20 mg/L	> 20 mg/L	> 20 mg/L	> 20 mg/L	> 20 mg/L	> 20 mg/L	> 20 mg/L	≥ 20 µg/mL	> 20 mg/L	> 20 mg/L	> 20 mg/L	> 20 mg/L	100 µg/mL	selectivity ratio [7]: > 5; selectivity ratio [8]: > 5; selectivity ratio [9]: > 5; selectivity ratio [10]: > 5; selectivity ratio [11]: > 5; EC50 [20]: > 20 mg/L; EC50 [24]: > 20 mg/L
Clc1ccc(C2=NOC(c3ccc(OCc4ccccc4)cc3)C2)cc1 (stereo not given)	58	10	60	38	inactive	inactive	> 100 µg/mL														
c1ccc(COc2ccc(C3CC(c4ccccc4)=NN3c3ccccc3)cc2)cc1 (stereo not given)	23	7	30	0	inactive	inactive	100 µg/mL	> 20 mg/L	> 20 mg/L	> 20 mg/L	> 20 mg/L	> 20 mg/L	> 20 mg/L	> 20 mg/L	100 µg/mL	> 20 mg/L	> 20 mg/L	> 20 mg/L	> 20 mg/L	100 µg/mL	selectivity ratio [7]: > 5; selectivity ratio [8]: > 5; selectivity ratio [9]: > 5; selectivity ratio [10]: > 5; selectivity ratio [11]: > 5; EC50 [20]: > 20 mg/L; EC50 [24]: > 20 mg/L
Nc1ccn(C[C@@H](CO)OCP(=O)(O)O)c(=O)n1 [CIDOFOVIR]																	> 250 µM	5 µM	3 µM	> 250 µM	
O=c1[nH]c(=O)n([C@H]2C[C@H](O)[C@@H](CO)O2)cc1/C=C/Br [BRIVUDINE]																> 250 µM	> 250 µM	126 µM		> 250 µM	
c1ccc(COc2ccc(C3CC(c4ccccc4)=NO3)cc2)cc1 (stereo not given)	2	0	15	3	inactive	inactive	> 100 µg/mL														
Brc1ccc(C2=NN(c3ccccc3)C(c3ccc(OCc4ccccc4)cc3)C2)cc1 (stereo not given)	16	2	50	13.3	inactive	inactive	≥ 20 µg/mL	> 20 mg/L	> 20 mg/L	> 20 mg/L	> 20 mg/L	> 20 mg/L	> 20 mg/L	> 20 mg/L	100 µg/mL	> 20 mg/L	> 20 mg/L	> 20 mg/L	> 20 mg/L	100 µg/mL	selectivity ratio [7]: > 5; selectivity ratio [8]: > 5; selectivity ratio [9]: > 5; selectivity ratio [10]: > 5; selectivity ratio [11]: > 5; EC50 [20]: > 20 mg/L; EC50 [24]: > 20 mg/L
Nc1nc2c(ncn2COC(CO)CO)c(=O)[nH]1 [GANCICLOVIR]																6 µM	> 100 µM	0.08 µM		> 100 µM	EC50 [24]: > 100 µM
NC(=O)c1ncn([C@@H]2O[C@H](CO)[C@@H](O)[C@H]2O)n1 [RIBAVIRIN]							> 250 µM		> 250 µM	> 250 µM	> 250 µM	45 µM			> 250 µM	> 250 µM	> 250 µM	> 250 µM	> 250 µM	> 250 µM	
Nc1ncnc2c1ncn2C[C@H](O)CO [(S)-DHPA]							> 250 µM	> 250 µM	> 250 µM	> 250 µM	> 250 µM	> 250 µM	> 250 µM	> 250 µM	> 250 µM						EC50 [20]: > 250 µM
Cc1ccc(C2=NN(c3ccccc3)C(c3ccc(OCc4ccccc4)cc3)C2)cc1 (stereo not given)	39	14	58	31	inactive	inactive	100 µg/mL	> 20 mg/L	> 20 mg/L	> 20 mg/L	> 20 mg/L	> 20 mg/L	> 20 mg/L	> 20 mg/L	100 µg/mL	> 20 mg/L	> 20 mg/L	> 20 mg/L	> 20 mg/L	100 µg/mL	selectivity ratio [7]: > 5; selectivity ratio [8]: > 5; selectivity ratio [9]: > 5; selectivity ratio [10]: > 5; selectivity ratio [11]: > 5; EC50 [20]: > 20 mg/L; EC50 [24]: > 20 mg/L
Brc1ccc(C2=NOC(c3ccc(OCc4ccccc4)cc3)C2)cc1 (stereo not given)	21	7.3	67	26.1	inactive	inactive	≥ 20 µg/mL														
Cc1ccc(C2=NOC(c3ccc(OCc4ccccc4)cc3)C2)cc1 (stereo not given)	46	27	79	45	inactive	inactive	> 100 µg/mL														
